Results reported in patent US20200386748A1, “COMPOSITIONS AND METHODS FOR ANALYTE DETECTION USING BIOLUMINESCENCE” (Promega Corporation, priority 2019, published 2020).
Residues, ends and D or L forms follow the SMILES beside them. No end group written: not given here. *: point of attachment. X1 = O=C(CCOCCOCCOCOCCOCCOCCOCCC(=O)*)ON1C(=O)CC(S(=O)(=O)O)C1=O; X3 = O=C(CCOCCOCCOCCOCCOCCOCCC(=O)*)ON1C(=O)CC(S(=O)(=O)O)C1=O; X2 = O=C(CCOCCOCCOCCC(=O)*)ON1C(=O)CC(S(=O)(=O)O)C1=O

Assays:
[1] = tested on: rhIL-6; experiment: Solution-based IL-6 immunoassay with antibodies directly labeled with reactive peptides; design: species or system human; conditions: for signal in the absence of rhIL-6 / signal to background: paired with HW-1053, 1 μM LgTrip 3546; for IL-6 assay result with LgTrip 5146: 1 μM LgTrip 5146 instead of LgTrip 3546; for signal to background: IL-6 titration; for light output in the presence of high rhIL-6 concentrations: SmTrip9 label on 5IL6 antibody paired with HW-1053-labeled 505E antibody, 1 μM LgTrip 3546
Procedure: The basic principle of homogeneous NanoLuc tripartite immunoassays with directly-labeled antibodies is depicted in FIG. 78.
SmTrip9 variants such as Pep693 (SEQ ID NO: 20), Pep895 (SEQ ID NO: 24), and Pep929 (SEQ ID NO: 25) or SmTrip10 variants such as Pep691 (SEQ ID NO: 18) and Pep692 (SEQ ID NO: 19) were individually dissolved in DMF to 5 mM. […] Subsequently, these antibodies were combined with 20× molar excess of a reactive peptide for 1 hr at 4° C. while shaking in order to covalently label the proteins. […] SmTrip9 reactive peptides were used to label antibody 5IL6 while SmTrip10 reactive peptides were used to label antibody 505E. The denaturing SDS-PAGE gel shown in FIG. 79 was used to characterize the conjugated antibodies.
FIGS. 80-82 display raw RLU dose response curves for antibody conjugates in the presence of a rhIL-6 titration series. […] After addition of N205, luminescence signal was measured. […] Data in FIG. 81 were generated using 62.5 ng/ml of SmTrip9-labeled (HW-0984) 5IL6 antibody and 60 ng/ml of SmTrip10-labeled (HW-1053) 505E antibody. Data in FIG. 82 were generated using the following concentrations of antibody conjugates: 15 ng/ml HW-1043 (SEQ ID NO: 24)+30 ng/ml HW-1053 (SEQ ID NO: 18), 15 ng/ml HW-1052 (SEQ ID NO: 25)+15 ng/ml HW-1053, (SEQ ID NO: 18) 15 ng/ml HW-1055 (SEQ ID NO: 25)+15 ng/ml HW-1053 (SEQ ID NO: 18), 60 ng/ml HW-1042 (SEQ ID NO: 20)+8 ng/ml HW-1053 (SEQ ID NO: 18), and 60 ng/ml HW-1050 (SEQ ID NO: 27)+8 ng/ml HW-1053 (SEQ ID NO: 18).

[2] = target: T1, purified NANOLUC enzyme (Oplophorus gracilirostris, UniProt Q9GV45, A31E/A60N/A81I/F95D/I117V/K70R/L54V/L99Q/M102K/N193R/P142E/Q151K/Q38R/Q45L/V71I/Y165I); format: biochemical; conditions: stored in organic solvent at elevated temperature (60° C.)
T1 construct: purchased Promega

[3] = target: LgTrip 3546; experiment: titration of the single labeled antibody with 1 µM LgTrip 3546 and N205, no IL-6 (FIG. 83)
Sequence of LgTrip 3546 (chain, as listed by the source): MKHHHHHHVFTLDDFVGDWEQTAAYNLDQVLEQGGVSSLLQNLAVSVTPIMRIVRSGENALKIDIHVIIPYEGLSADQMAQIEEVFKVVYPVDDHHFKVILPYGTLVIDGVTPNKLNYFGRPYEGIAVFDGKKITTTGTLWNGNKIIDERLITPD

[4] = Protein buffer formulations for proteins dried on Whatman 903 paper; conditions: buffers 2 and 5
Procedure: For these experiments, Whatman 903 protein saver spot cards were used with the following protein buffer formulations: • Protein buffer 1: 20 mM Na3PO4, 5% w/v BSA, 0.25% v/v tween 20, 10% w/v sucrose • Protein buffer 2: 20 mM Na3PO4, 0.25% v/v tween 20, 10% w/v sucrose • Protein buffer 3: 20 mM Na3PO4, 5% w/v BSA, 0.25% v/v tween 20 • Protein buffer 4: 20 mM Na3PO4, 5% w/v BSA, 0.25% v/v tween 20, 2.5% pullulan • Protein buffer 5: 20 mM Na3PO4, 0.25% v/v tween 20, 2.5% pullulan.
For NanoLuc, a 1000× stock solution was diluted 1:1000 in protein buffer (1 mL). For a 1.068 nM stock solution, 3 μl was diluted into 297 μl of protein buffer. About 5 μL of each concentration was spotted on the filter paper. For LgBiT-1672-11s-His, 5 μL of 1.068 nM protein per spot was used. About 104, was diluted in 990 μL protein buffer for a 2e^−7M stock. About 100 μL of a 100 nM protein solution was then prepared, and about 10 μL stock was diluted into 990 μL protein buffer for 1 nM stock. About 5 μL of each concentration was spotted onto filter paper. For LgTrip 3546, about 5 μL of 1.068 nM protein was used per spot. About 1.1 of LgBiT-1672 stock was diluted into 998.94 μL protein buffer. About 3 μL stock was diluted into 297 μL protein buffer. About 54, of each concentration was spotted onto filter paper. After all protein was added, the samples were dried at 30° C. for about 1 hour. […]

RLU [3] [RLU] | Molecule | signal in the absence of rhIL-6 [1] | further results
 | CC[C@H](C)[C@H](NC(=O)[C@@H](NC(=O)[C@@H](NC(=O)[C@H](CCCNC(=N)N)NC(=O)[C@H](Cc1ccccc1)NC(=O)[C@H](CC(C)C)NC(=O)[C@H](CCSC)NC(=O)[C@H](CCCNC(=N)N)NC(=O)[C@H](CCCNC(=N)N)NC(=O)CCOCCOCCOCCC(=O)ON1C(=O)CC(S(=O)(=O)O)C1=O)C(C)C)[C@@H](C)O)C(=O)N[C@@H](CCC(N)=O)C(=O)N[C@@H](CCCNC(=N)N)C(=O)N[C@@H](Cc1c[nH]c2ccccc12)C(=O)N[C@@H](CCCNC(=N)N)C(=O)O (some centres unmarked) [HW-1055, SulfoSE-PEG3-SmTrip9 Pep929] (X2-RRMLFRVTIQRWR-OH) | high signal even in the absence of rhIL-6 | 
 | CC[C@H](C)[C@H](NC(=O)[C@@H](NC(=O)[C@@H](NC(=O)[C@@H](NC(=O)[C@H](Cc1ccccc1)NC(=O)[C@H](CC(C)C)NC(=O)[C@H](CC(C)C)NC(=O)[C@H](CCCNC(=N)N)NC(=O)CNC(=O)CCOCCOCCOCCOCOCCOCCOCCC(=O)ON1C(=O)CC(S(=O)(=O)O)C1=O)[C@@H](C)O)C(C)C)[C@@H](C)O)C(=O)N[C@@H](CCC(=O)O)C(=O)N[C@@H](CCCNC(=N)N)C(=O)N[C@@H](Cc1ccc(O)cc1)C(=O)N[C@@H](CCCNC(=N)N)C(N)=O (some centres unmarked) [HW-1043, SulfoSE-PEG6-SmTrip9 Pep895] (X1-GRLLFTVTIERYR-NH2) | low light output in the absence of the analyte | IL-6 assay result with LgTrip 5146 [1]: results similar to LgTrip 3546; signal to background [1]: best signal to background; light output in the presence of high rhIL-6 concentrations [1]: ~10^6 RLUs
 | CC[C@H](C)[C@H](NC(=O)[C@@H](NC(=O)[C@@H](NC(=O)[C@H](CCCNC(=N)N)NC(=O)[C@H](Cc1ccccc1)NC(=O)[C@H](CC(C)C)NC(=O)[C@H](CCSC)NC(=O)[C@H](CCCNC(=N)N)NC(=O)[C@H](CCCNC(=N)N)NC(=O)CCOCCOCCOCCOCCOCCOCCC(=O)ON1C(=O)CC(S(=O)(=O)O)C1=O)C(C)C)[C@@H](C)O)C(=O)N[C@@H](CCC(N)=O)C(=O)N[C@@H](CCCNC(=N)N)C(=O)N[C@@H](Cc1c[nH]c2ccccc12)C(=O)N[C@@H](CCCNC(=N)N)C(=O)O (some centres unmarked) [HW-1052, SulfoSE-PEG6-SmTrip9 Pep929] (X3-RRMLFRVTIQRWR-OH) | high signal even in the absence of rhIL-6 | 
 | O=c1c(Cc2ccco2)nc2c(Cc3ccccc3)[nH]c(-c3ccccc3)cn1-2 [furimazine, 8-benzyl-2-(furan-2-ylmethyl)-6-phenylimidazo[1,2-a]pyrazin-3(7H)-one] |  | time to loss of all activity [2]: about 10 days
 | SulfoSE-PEG3-SmTrip9 Pep938-SA (GRMLFRVTINSWRC; also: SulfoSE-PEG3 label, position not given here) [HW-1050] | low light output in the absence of the analyte | IL-6 assay result with LgTrip 5146 [1]: results similar to LgTrip 3546; signal to background [1]: best signal to background; light output in the presence of high rhIL-6 concentrations [1]: ~10^6 RLUs
100 | GRMLFRVTINSWR (antibody, not shown: large carriers; small tags and cut ends, not fully specified) [anti-IL-6 antibody 5IL6 directly labeled with HW-1042 (SulfoSE-PEG6-SmTrip9 Pep693)] |  | 
 | NanoLuc: bioluminescent polypeptide of SEQ ID NO: 5, NanoLuc luciferase (Promega) (protein) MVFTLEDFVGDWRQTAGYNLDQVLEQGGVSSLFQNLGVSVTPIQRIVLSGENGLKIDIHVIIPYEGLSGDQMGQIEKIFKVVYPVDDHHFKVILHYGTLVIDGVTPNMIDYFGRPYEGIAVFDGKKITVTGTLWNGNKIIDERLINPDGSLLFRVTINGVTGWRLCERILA |  | change of RLU in protein buffers without BSA [4]: largest decreases in RLU
> 1000 | GRMLFRVTINSWR (antibody, not shown: large carriers; small tags and cut ends, not fully specified) [anti-IL-6 antibody 5IL6 directly labeled with HW-0984 (SulfoSE-PEG3-SmTrip9 Pep693)] |  | 
100 | VSGWRLFRRIS (antibody, not shown: large carriers; small tags and cut ends, also: peptide labeled on anti-IL-6 antibody 505E via SulfoSE-PEG3 linker) [anti-IL-6 antibody 505E directly labeled with HW-0977 (SulfoSE-PEG3-SmTrip10 Pep691)] |  | 
100 | RRMLFRVTIQRWR (antibody, not shown: large carriers; small tags and cut ends, not fully specified) [anti-IL-6 antibody 5IL6 directly labeled with HW-1052 (SulfoSE-PEG6-SmTrip9 Pep929)] |  | 
100 | GRLLFVVVIERYR (antibody, not shown: large carriers; small tags and cut ends, not fully specified) [anti-IL-6 antibody 5IL6 directly labeled with HW-1010 (SulfoSE-PEG3-SmTrip9 Pep895)] |  | 
